The text below walks through data of patent US8304426B2, “Polymorphic form of Granisetron base, methods for obtaining it and formulation containing it” (Inke, S.A., priority 2007, dated 2012).

This data set is described as follows: Stability of the polymorphic form: XRPD, IR and DSC characterization repeated one year later. It is filed as physicochemical. As to conditions: solid from Example 11 (crystallised from 2-propanol). As for the experimental part: A PHILIPS X′ Pert diffractometer provided with a Cu tube and a secondary monochromator made of graphite (wavelength Kα Cu, 1.5419 Å) was used to record the X-ray powder diffractograms. Reception slot: 0.1 mm; Soller: 0.04 rad; antidiffusion slot and divergence slot: 1°.
2.61 g of Granisetron base is dissolved in 7.0 ml of 2-propanol, and is taken to reflux, when all the product is dissolved, the resultant dissolution is allowed to cool to 15° C. and the resultant solid is filtered and washed with 2-propanol. 2.47 g of Granisetron base is recovered (95%). Said Granisetron base is characterized as Form I with the following data of XRPD, IR and DSC: […]

In the case of `CN1C2CCCC1CC(NC(=O)c1nn(C)c3ccccc13)C2` (stereo not drawn) [Form I of Granisetron base, endo-1-methyl-N-(9-methyl-9-azabicycle[3.3.1]non-3-yl)-1H-indazole-3-carboxamide], the “Stability of polymorphic form (XRPD, IR and DSC characterization repeated, same result obtained)” value is listed as “stable”.
